Tests used:
[1] = Exosomal protein concentration of urine in paracetamol overdose patients (BCA protein assay); assay type: in vivo, human; conditions: 4 hours after paracetamol overdose
Method: (§1) Six normal male volunteers (aged 23-40, MREC ethics approval number 06/MRE00/67) provided urine samples in sterile 50 ml plastic containers. To each urine sample a protease inhibitor was added (50:1 of 1 mM Leupeptin). […] 3 out of 6 of these patients had elevated serum alanine transaminase (ALT) 24 hours after admission indicating significant liver injury. The samples were centrifuged at 15000×g for 15 minutes at 4° C. to pellet the urinary sediment. The ‘15000×g supernatant’ was then centrifuged at 100 000 rpm for 1 hour at 4° C. to obtain low density urinary exosome pellets. The 100 000 rpm supernatant was decanted and replaced with an additional ‘15 000×g supernatant’ and ultracentrifuged again. The ultracentrifugation step was repeated 4-6 more times to harvest the exosome pellets from 18-24 ml of 15 000×g supernatant. Pellets were resuspended in 50 μl isolation solution (10 mM triethanolamine/250 mM sucrose (pH 7.6)).
(§2) The amount of urine and MP protein was determined using the BCA™ Protein Assay Kit (Pierce, USA) and following the manufacturer's instructions. 20 μg of normal urine exosome samples were loaded per well. Loading amounts for each of the paracetemol overdose samples were normalised for urinary creatinine to account for differences in urine concentration. […]

[2] = tested on: c-Jun; experiment: Western blot for c-Jun in urine exosomes of paracetamol overdose patients; assay type: in vivo, human; conditions: following paracetamol-induced liver injury in humans, FIG. 7
Method: as §1, §2

[3] = NAC as antidote for APAP overdose; cited from earlier work

Compound | increase in exosomal proteinuria compared to normal ([1]; pooled sample from 3 patients with organ injury) [fold] | increase in exosomal protein compared to normal healthy individuals ([1]; pooled samples from 3 patients without organ injury) | urinary microparticle concentration of C-Jun protein [2] | patients with adverse reactions [3]
CC(=O)Nc1ccc(O)cc1 [paracetamol, N-(4-hydroxyphenyl)ethanamide] | ~37 | about 7 fold | increased | 
CC(=O)N[C@@H](CS)C(=O)O [N-acetylcysteine] |  |  |  | around 15%

Source: patent US8110371B2, “Identifying organ damage” (The University Court of the University of Edinburgh, priority 2007, dated 2012)
